One data set addresses T1, TRK-A (Homo sapiens, UniProt P04629).
T1 construct: purchased Carna 08-186
Briefly: Kinase activity, Mobility Shift Assay. In kind it is biochemical. As to the method:
(§1) The assay used the Mobility Shift Assay method. The starting concentration of the test substance was 2.5 μM, which was serially diluted 3-fold to give a total of 10 concentrations, in duplicate.
(§2) The p-toluenesulfonate salt of the free compound prepared in Example 2 was used as the test compound. The starting concentration of the test was 2.5 μM, and the concentration was prepared to 50 times, that is, 125 μM. 158 μl of 100% DMSO was added to the second well of a 96-well plate, and then 2 μl of 10 mM compound solution was added to prepare a 125 μM compound solution. 60 μl of 100% DMSO was added to the other wells. 30 μl of the compound was taken out from the second well and added to the third well, and the 3-fold dilution was made successively to give a total of 10 dilutions. Dilution instrument: automatic microwell pipette (Precision PRC384U)
(§3) • (1) 10 μl was taken out from each well of the 96-well plate with 50-fold compound concentration and transferred to another 96-well plate. 90 μl of kinase buffer was added to prepare a 5-fold compound concentration. • (2) 5 μl was taken out from the 96-well plate with 5-fold compound concentration and transferred to a 384-well reaction plate. For example, the compound in well A1 of the 96-well plate was transferred to wells A1 and A2 of the 384-well plate, the compound in well A2 of the 96-well plate was transferred to wells A3 and A4 of the 384-well plate, and so on.
(§4) Kinase was added to 1× kinase buffer to make a 2.5 times enzyme solution.
(§5) • (1) 5 μl of 5× compound dissolved in 10% DMSO was already in the 384-well reaction plate. • (2) 10 μl of 2.5× enzyme solution was added to the 384-well reaction plate and 10 μl of kinase buffer was added to the negative control wells. • (3) Incubation at room temperature for 10 minutes.
(§6) FAM-labeled peptide and ATP (ATP concentration see Appendix) were added to 1× kinase buffer to form a 2.5× substrate solution.
(§7) 10 μl of 2.5× substrate solution was added to the 384-well reaction plate and centrifuged at 1000 rpm for 1 minute.
(§8) • (1) The plate was incubated at 28° C. for 60 minutes (Biochemical incubator model: SPX-100B-Z). • (2) 30 μl of stop solution was added to the 384-well reaction plate to terminate the reaction and centrifuged at 1000 rpm for 1 minute.
(§9) The data of conversion rate was read on Caliper EZ Reader II.
(§10) • 1) The conversion rate data was copied from Caliper EZ Reader II. • 2) The conversion rate was converted to inhibition rate data, where max refers to the conversion rate of the DMSO control and min refers to the conversion rate of the no enzyme activity control.
(§11) [formula] • 3) Fitting of IC50 values using XLFit excel add-in version 5.4.0.8

The target of another data set is T2, KDR(VEGFR2) (Homo sapiens, UniProt P35968).
T2 construct: purchased Carna 08-191
The data set can be described thus: Kinase activity, Mobility Shift Assay. It counts as biochemical. As to the method: as §1, §2, §3, §4, §5, §6, §7, §8, §9, §10, §11

Another data set has as its target T3, RET (Homo sapiens, UniProt P07949).
T3 construct: purchased Carna 08-159
The data set can be described thus: Kinase activity, Mobility Shift Assay. In kind it is biochemical. The method, then:
as §1, §2, §3, §4, §5, §6, §7, §8, §9, §10, §11

For another data set, the target named is T4, MET (Homo sapiens, UniProt P08581).
T4 construct: purchased Carna 08-151
T4 sequence (P08581 25-1390): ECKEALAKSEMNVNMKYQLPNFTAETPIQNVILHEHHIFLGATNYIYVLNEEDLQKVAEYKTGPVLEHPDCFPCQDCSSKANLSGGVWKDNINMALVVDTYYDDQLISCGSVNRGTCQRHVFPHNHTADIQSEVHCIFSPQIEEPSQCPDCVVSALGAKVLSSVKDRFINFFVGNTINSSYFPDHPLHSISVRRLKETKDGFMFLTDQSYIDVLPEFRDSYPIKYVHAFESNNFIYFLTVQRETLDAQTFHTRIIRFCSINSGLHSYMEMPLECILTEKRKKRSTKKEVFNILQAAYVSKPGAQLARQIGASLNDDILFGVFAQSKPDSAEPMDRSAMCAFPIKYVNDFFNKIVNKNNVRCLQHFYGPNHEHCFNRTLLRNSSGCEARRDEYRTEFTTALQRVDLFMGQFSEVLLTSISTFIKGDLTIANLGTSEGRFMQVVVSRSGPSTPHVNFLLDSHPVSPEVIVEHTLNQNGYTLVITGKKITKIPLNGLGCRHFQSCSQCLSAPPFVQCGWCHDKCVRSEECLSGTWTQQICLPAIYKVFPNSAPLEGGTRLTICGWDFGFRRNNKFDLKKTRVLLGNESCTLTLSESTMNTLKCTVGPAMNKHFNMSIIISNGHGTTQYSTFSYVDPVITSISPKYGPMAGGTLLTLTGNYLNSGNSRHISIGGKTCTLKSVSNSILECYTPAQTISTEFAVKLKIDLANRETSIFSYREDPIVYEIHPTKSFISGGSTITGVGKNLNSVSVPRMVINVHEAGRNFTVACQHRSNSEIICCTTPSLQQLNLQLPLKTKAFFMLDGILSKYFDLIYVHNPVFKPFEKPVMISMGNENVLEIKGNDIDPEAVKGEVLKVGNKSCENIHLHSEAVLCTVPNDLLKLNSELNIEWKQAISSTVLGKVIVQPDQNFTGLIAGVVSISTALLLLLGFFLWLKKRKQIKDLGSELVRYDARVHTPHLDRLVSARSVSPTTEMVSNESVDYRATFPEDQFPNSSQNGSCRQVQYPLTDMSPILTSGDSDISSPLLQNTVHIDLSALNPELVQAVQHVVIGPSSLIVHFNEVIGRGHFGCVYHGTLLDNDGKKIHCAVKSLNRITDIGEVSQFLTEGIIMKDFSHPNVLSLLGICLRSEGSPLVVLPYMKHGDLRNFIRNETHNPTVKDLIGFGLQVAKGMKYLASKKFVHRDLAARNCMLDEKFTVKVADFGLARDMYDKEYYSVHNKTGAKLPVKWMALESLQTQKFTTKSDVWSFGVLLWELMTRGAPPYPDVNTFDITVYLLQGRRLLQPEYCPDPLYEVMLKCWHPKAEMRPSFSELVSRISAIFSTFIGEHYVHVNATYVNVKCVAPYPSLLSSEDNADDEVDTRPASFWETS
The data set can be described thus: Kinase activity, Mobility Shift Assay. In kind it is biochemical. As to the method:
as §1, §2, §3, §4, §5, §6, §7, §8, §9, §10, §11

In another data set the target is T5, AXL (Homo sapiens, UniProt P30530).
T5 construct: purchased Carna 08-107
T5 sequence (P30530 26-894): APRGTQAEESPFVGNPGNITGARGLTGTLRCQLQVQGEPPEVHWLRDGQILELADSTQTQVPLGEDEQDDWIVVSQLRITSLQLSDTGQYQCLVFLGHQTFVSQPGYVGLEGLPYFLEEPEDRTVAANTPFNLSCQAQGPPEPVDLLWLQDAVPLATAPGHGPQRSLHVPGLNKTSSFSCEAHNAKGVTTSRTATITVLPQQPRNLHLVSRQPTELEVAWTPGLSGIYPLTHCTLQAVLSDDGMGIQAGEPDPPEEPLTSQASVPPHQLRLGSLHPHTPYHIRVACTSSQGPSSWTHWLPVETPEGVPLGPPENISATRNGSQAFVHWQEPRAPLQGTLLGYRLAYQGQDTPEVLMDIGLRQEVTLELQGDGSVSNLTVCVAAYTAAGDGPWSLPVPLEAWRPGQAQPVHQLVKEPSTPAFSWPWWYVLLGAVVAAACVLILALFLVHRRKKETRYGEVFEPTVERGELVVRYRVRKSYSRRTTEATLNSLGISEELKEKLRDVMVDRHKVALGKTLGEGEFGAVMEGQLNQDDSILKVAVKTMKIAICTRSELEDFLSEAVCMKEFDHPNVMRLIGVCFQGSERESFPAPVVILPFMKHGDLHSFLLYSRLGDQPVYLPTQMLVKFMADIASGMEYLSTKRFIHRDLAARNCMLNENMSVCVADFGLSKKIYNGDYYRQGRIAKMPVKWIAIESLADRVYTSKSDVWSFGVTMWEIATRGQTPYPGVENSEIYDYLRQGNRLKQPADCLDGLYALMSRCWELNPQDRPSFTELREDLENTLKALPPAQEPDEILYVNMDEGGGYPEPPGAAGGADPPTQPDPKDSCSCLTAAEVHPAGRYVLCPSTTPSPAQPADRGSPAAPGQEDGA
The data set can be described thus: Kinase activity, Mobility Shift Assay. It counts as biochemical. As to the method: as §1, §2, §3, §4, §5, §6, §7, §8, §9, §10, §11

The next data set has as its target T6, PDGFRa (Homo sapiens, UniProt P16234).
T6 construct: purchased BPS 40260
Briefly: Kinase activity, Mobility Shift Assay. In kind it is biochemical. As to the method:
as §1, §2, §3, §4, §5, §6, §7, §8, §9, §10, §11

Another data set has as its target T7, TRK-B (Homo sapiens, UniProt Q16620).
T7 construct: purchased Carna 08-187
The data set can be described thus: Kinase activity, Mobility Shift Assay. In kind it is biochemical. The method, then:
as §1, §2, §3, §4, §5, §6, §7, §8, §9, §10, §11

For a further data set, the target named is T8, KIT (Homo sapiens, UniProt P10721).
T8 construct: purchased eurofins 14-559M
T8 sequence (P10721 26-976): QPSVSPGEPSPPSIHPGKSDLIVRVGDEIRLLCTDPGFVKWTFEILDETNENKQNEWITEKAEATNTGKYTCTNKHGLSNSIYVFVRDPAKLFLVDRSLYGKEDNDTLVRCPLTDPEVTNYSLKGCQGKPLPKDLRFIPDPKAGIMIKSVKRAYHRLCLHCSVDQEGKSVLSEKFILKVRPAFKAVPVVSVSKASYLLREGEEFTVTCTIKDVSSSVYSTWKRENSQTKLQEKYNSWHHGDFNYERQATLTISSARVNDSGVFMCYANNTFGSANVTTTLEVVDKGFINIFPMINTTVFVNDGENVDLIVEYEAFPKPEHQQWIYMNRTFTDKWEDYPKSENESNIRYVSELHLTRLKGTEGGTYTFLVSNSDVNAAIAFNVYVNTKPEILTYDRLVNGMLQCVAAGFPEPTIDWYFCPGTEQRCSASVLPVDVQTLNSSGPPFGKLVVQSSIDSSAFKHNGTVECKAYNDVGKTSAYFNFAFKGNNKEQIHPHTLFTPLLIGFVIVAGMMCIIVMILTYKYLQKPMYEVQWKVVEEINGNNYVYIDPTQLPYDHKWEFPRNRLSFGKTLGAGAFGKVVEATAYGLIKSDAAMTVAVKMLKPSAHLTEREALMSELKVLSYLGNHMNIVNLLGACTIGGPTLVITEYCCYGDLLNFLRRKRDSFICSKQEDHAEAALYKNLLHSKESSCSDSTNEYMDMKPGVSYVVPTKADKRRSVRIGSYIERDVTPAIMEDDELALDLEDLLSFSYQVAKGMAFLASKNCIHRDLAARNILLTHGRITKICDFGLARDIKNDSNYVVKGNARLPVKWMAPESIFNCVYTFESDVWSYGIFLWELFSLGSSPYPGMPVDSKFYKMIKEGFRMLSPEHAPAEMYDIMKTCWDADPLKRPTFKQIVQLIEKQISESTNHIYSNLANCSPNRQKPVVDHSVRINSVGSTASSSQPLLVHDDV
Briefly: Kinase activity, Mobility Shift Assay. It counts as biochemical. As to the method: as §1, §2, §3, §4, §5, §6, §7, §8, §9, §10, §11

The nature of data set [1]: Equilibrium solubility in water. In kind it is physicochemical. To be noted: H2O, room temperature, 24 hours; listed as p-Toluenesulfonate salt crystal form A-II. As to the method: The sample was centrifuged and filtered, and the filtrate was tested by HPLC.
A short description of data set [2]: Long-term stability study. It counts as physicochemical. As to the method: p-Toluenesulfonate salt crystal form A-II of the compound of formula (I) was placed at 25° C./60% RH for 6 months to investigate its long-term stability.
[3] abbreviates: 25° C./60% RH, simulating factory packaging, 3 months.
The mark [4] stands for this setting: 25° C./60% RH, simulating factory packaging, 6 months.

SMILES strings stand for the structures.

T6 sequence (P16234 24-1089): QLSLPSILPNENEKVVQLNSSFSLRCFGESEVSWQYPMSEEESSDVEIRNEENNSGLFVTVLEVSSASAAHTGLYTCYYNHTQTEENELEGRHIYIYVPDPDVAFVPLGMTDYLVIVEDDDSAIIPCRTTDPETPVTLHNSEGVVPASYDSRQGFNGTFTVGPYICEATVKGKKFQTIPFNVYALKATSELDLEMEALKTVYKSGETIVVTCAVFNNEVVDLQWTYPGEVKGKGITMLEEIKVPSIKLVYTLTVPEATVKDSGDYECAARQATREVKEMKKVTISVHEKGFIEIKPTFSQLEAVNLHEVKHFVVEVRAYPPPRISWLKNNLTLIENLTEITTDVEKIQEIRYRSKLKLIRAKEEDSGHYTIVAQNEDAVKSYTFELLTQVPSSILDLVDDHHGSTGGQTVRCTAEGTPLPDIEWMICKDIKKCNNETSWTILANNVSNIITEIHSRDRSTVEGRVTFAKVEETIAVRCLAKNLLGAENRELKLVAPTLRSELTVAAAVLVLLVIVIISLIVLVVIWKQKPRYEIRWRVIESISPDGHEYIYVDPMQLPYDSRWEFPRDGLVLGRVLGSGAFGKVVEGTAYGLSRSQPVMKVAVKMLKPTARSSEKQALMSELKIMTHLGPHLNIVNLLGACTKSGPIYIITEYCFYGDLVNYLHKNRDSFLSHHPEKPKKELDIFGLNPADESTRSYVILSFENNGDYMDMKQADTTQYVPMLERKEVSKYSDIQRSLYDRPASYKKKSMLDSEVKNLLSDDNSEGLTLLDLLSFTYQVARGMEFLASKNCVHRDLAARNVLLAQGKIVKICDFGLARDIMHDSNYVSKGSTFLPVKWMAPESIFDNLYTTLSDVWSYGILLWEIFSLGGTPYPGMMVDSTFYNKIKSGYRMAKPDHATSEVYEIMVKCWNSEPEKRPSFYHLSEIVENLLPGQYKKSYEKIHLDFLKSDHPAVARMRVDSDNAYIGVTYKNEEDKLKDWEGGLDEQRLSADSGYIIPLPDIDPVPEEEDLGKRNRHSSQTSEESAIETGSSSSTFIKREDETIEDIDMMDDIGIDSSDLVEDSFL
T1 sequence (P04629 33-796): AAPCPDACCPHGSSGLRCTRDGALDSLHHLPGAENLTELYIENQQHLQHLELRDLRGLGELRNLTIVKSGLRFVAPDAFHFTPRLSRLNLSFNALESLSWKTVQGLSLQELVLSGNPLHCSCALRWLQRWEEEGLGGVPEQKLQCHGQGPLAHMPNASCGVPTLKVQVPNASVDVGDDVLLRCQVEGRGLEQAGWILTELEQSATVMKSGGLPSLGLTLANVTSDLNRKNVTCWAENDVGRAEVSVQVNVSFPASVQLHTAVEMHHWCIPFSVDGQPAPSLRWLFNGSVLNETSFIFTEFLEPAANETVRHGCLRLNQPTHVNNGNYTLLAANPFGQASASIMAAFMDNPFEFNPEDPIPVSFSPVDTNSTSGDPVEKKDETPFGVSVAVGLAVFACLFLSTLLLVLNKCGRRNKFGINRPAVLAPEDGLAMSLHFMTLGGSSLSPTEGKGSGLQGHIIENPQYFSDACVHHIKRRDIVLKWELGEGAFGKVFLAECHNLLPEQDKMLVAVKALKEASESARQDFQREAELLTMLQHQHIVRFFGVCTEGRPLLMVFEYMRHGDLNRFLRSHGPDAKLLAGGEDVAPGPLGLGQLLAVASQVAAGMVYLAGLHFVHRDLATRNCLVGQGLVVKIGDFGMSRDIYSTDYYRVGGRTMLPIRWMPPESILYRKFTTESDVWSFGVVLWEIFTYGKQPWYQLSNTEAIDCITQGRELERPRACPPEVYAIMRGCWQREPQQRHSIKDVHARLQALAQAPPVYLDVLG
T7 sequence (Q16620 32-822): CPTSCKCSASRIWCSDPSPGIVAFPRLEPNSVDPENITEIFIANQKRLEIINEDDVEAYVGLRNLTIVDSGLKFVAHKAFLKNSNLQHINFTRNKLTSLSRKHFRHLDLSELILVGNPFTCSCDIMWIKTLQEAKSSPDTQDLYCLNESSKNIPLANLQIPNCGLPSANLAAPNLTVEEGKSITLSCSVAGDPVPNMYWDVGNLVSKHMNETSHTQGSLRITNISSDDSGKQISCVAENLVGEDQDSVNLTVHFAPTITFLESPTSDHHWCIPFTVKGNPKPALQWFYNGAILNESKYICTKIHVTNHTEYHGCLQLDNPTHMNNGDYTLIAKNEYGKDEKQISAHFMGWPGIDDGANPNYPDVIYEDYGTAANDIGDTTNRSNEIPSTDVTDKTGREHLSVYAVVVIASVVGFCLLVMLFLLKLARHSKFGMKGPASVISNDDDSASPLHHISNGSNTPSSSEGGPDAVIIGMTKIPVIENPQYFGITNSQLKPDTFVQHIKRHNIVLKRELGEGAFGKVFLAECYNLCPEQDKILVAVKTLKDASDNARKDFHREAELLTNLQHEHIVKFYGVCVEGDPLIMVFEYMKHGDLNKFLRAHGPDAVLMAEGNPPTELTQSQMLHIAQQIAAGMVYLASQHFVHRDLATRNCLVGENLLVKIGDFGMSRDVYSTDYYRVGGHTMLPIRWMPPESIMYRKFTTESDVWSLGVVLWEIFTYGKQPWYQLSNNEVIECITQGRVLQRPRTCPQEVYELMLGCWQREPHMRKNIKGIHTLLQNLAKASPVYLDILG

`O=C(Nc1ccc(F)cc1)C1(C(=O)Nc2ccc(Oc3ccnc4cc(OCCCN5CCOCC5)c5c(c34)OCCO5)c(F)c2)CC1` [Example 2, N-(3-fluoro-4-((5-(3-morpholinopropoxy)-2,3-dihydro-[1,4]dioxano[2,3-f]quinolin-10-yl)oxy)phenyl)-N-(4-fluorophenyl)cyclopropane-1,1-dicarboxamide]: the “inhibition of the activity of TRK-A (in words)” value on TRK-A was “effectively inhibit”. The “inhibition of the activity of VEGFR-2 (in words)” value on KDR(VEGFR2) was “effectively inhibit”. The “inhibition of the activity of RET (in words)” value on RET is given as “effectively inhibit”. The “inhibition of the activity of c-MET (in words)” value at MET is recorded as “effectively inhibit”. Moreover, the “inhibition of the activity of AXL (in words)” value on AXL is given as “effectively inhibit”. At PDGFRa, the “inhibition of the activity of PDGFRa (in words)” value is on record as “effectively inhibit”. Also, the “inhibition of the activity of TRK-B (in words)” value at TRK-B is recorded as “effectively inhibit”. Further, the “inhibition of the activity of c-KIT (in words)” value at KIT was “effectively inhibit”. Besides, the “Solubility (equilibrium)” value in data set [1] worked out at 5100 µg/mL. Moreover, in [2] (setting [3]), the Appearance result is “Off-white”, the Content is recorded as 100.0%, the Crystal form entry is recorded as “No” and the Moisture was 0.31%. The compound further showed a Total impurities in data set [2] (setting [3]) of 0.38%. For the same compound, in [2] (setting [4]), the Appearance result is listed as “Off-white”, the Content is listed as 100.5%, the Crystal form entry is on record as “No” and the Moisture was 0.59%. This compound also showed a Total impurities in data set [2] (setting [4]) of 0.36%. For the same compound, in data set [2] (Day 0), the Appearance entry was “Off-white”, the Content turned out to be 100.2%, the Crystal form result is given as “No” and the Moisture is 0.53%. The Total impurities in data set [2] (Day 0) worked out at 0.37%.

These data come from patent US20260176285A1, “SALT OF DIOXANE QUINOLINE COMPOUND, CRYSTAL FORM THEREOF, PREPARATION METHODS THEREFOR AND USES THEREOF” (Beijing Scitech-MQ Pharmaceuticals Limited, priority 2022, published 2026).
